# Reference: publication PMC9105976, “A Novel β-Hairpin Peptide Z-d14CFR Enhances Multidrug-Resistant Bacterial Clearance in a Murine Model of Mastitis” (International Journal of Molecular Sciences, 2022)
# Positions of bridges follow the written chain, without caps; N, C: chain ends. Residues, ends and D or L forms follow the SMILES beside them.
# Experiments:
# [1] = system: MRSA ATCC33591; test: MIC/MBC, microdilution broth method; format: cell-based, S. aureus; settings: for MIC: MRSA (methicillin-resistant S. aureus) ATCC33591, 1 × 10^6 CFU/mL, 18 h at 37 °C, NA = no antimicrobial activity at 1 mg/mL; for MBC: MRSA ATCC33591, kills 99.9% bacteria, NA = no activity at 1 mg/mL
# Protocol: (§1) The MIC of peptides against bacteria was carried out by the microdilution broth method. The bacterial culture (OD 600 = 0.6) was diluted in 10 mM PBS to 1 × 10^6 CFU/mL. The bacterial suspension (100 μL) was added to 96-well plates, and the same volume of peptides, ampicillin or gentamicin (concentrations ranging from 0.001 to 2 mg/mL) were then added to the same 96-well plates, respectively.
# [2] = Retention time of peptide in HPLC (hydrophobicity); format: physicochemical; settings: used as measure of hydrophobicity (order Z-d14CR > Z-d14CF > Z-d13 > Z-d14CFR > Z-d14C); column and gradient not given
# [3] = system: Proteus vulgaris CVCC1971; test: MIC/MBC, microdilution broth method; format: cell-based; settings: Proteus vulgaris CVCC1971; for MIC: 1 × 10^6 CFU/mL, 18 h at 37 °C, NA = no antimicrobial activity at 1 mg/mL; for MBC: kills 99.9% bacteria, NA = no activity at 1 mg/mL
# Protocol: as §1
# [4] = system: Klebsiella pneumoniae CAU202084; test: MIC/MBC, microdilution broth method; format: cell-based; settings: Klebsiella pneumoniae CAU202084 (MDR isolate); for MIC: 1 × 10^6 CFU/mL, 18 h at 37 °C, NA = no antimicrobial activity at 1 mg/mL; for MBC: kills 99.9% bacteria, NA = no activity at 1 mg/mL
# Protocol: as §1
# [5] = system: Salmonella typhimurium ATCC14028; test: MIC/MBC, microdilution broth method; format: cell-based; settings: Salmonella typhimurium ATCC14028; for MIC: 1 × 10^6 CFU/mL, 18 h at 37 °C, NA = no antimicrobial activity at 1 mg/mL; for MBC: kills 99.9% bacteria, NA = no activity at 1 mg/mL
# Protocol: as §1
# [6] = system: Staphylococcus haemolyticus CAU202078; test: MIC/MBC, microdilution broth method; format: cell-based; settings: Staphylococcus haemolyticus CAU202078 (MDR isolate); for MIC: 1 × 10^6 CFU/mL, 18 h at 37 °C, NA = no antimicrobial activity at 1 mg/mL; for MBC: kills 99.9% bacteria, NA = no activity at 1 mg/mL
# Protocol: as §1
# [7] = system: Streptococcus suis CVCC3307; test: MIC/MBC, microdilution broth method; format: cell-based; settings: Streptococcus suis CVCC3307; for MIC: 1 × 10^6 CFU/mL, 18 h at 37 °C, NA = no antimicrobial activity at 1 mg/mL; for MBC: kills 99.9% bacteria, NA = no activity at 1 mg/mL
# Protocol: as §1
# [8] = system: Escherichia coli CAU 201919; test: MIC/MBC, microdilution broth method; format: cell-based; settings: Escherichia coli CAU 201919 (MDR isolate)
# Protocol: as §1
# [9] = system: Staphylococcus aureus ATCC29213; test: MIC/MBC, microdilution broth method; format: cell-based; settings: Staphylococcus aureus ATCC29213
# Protocol: as §1
# [10] = system: Escherichia coli CVCC1450; test: MIC/MBC, microdilution broth method; format: cell-based; settings: Escherichia coli CVCC1450
# Protocol: as §1
# [11] = 1 × 10^6 CFU/mL, 18 h at 37 °C, NA = no antimicrobial activity at 1 mg/mL
# [12] = kills 99.9% bacteria, NA = no activity at 1 mg/mL
compound,measurement,setting,value
"CC(C)[C@@H]1NC(=O)[C@@H]2CSSC[C@H](NC(=O)[C@H](CCCNC(=N)N)NC(=O)[C@@H](NC(=O)CNC(=O)[C@@H](N)CCCNC(=N)N)CSSC[C@@H](C(=O)N[C@@H](CCCNC(=N)N)C(N)=O)NC1=O)C(=O)N[C@@H](CC(N)=O)C(=O)N[C@@H](CO)C(=O)N[C@@H](CCCCN)C(=O)N[C@@H](CO)C(=O)N[C@@H](C(C)C)C(=O)N2 [Z-d14CR] (H-RGCRCNSKSVCVCR-NH2; disulfide 3-13, 5-11; N-terminus assumed)",MIC,[1],NA (NA) (No antimicrobial activity at 1 mg/mL)
same,MBC,[1],NA (NA) (No antimicrobial activity at 1 mg/mL)
same,"RT, retention time of peptide in HPLC",[2],10.159 min
same,MIC,[3],NA (NA) (No antimicrobial activity at 1 mg/mL)
same,MBC,[3],NA (NA) (No antimicrobial activity at 1 mg/mL)
same,MIC,[4],NA (NA) (No antimicrobial activity at 1 mg/mL)
same,MBC,[4],NA (NA) (No antimicrobial activity at 1 mg/mL)
same,MIC,[5],NA (NA) (No antimicrobial activity at 1 mg/mL)
same,MBC,[5],NA (NA) (No antimicrobial activity at 1 mg/mL)
same,MIC,[6],NA (NA) (No antimicrobial activity at 1 mg/mL)
same,MBC,[6],NA (NA) (No antimicrobial activity at 1 mg/mL)
same,MIC,[7],NA (NA) (No antimicrobial activity at 1 mg/mL)
same,MBC,[7],NA (NA) (No antimicrobial activity at 1 mg/mL)
"CC(C)[C@@H]1NC(=O)[C@@H]2CSSC[C@H](NC(=O)[C@H](Cc3ccc(O)cc3)NC(=O)[C@@H](NC(=O)CNC(=O)[C@@H](N)CCCNC(=N)N)CSSC[C@@H](C(=O)N[C@@H](CCCNC(=N)N)C(N)=O)NC1=O)C(=O)N[C@@H](CC(N)=O)C(=O)N[C@@H](CO)C(=O)N[C@@H](CCCCN)C(=O)N[C@@H](CO)C(=O)N[C@@H](C(C)C)C(=O)N2 [Z-d14C] (H-RGCYCNSKSVCVCR-NH2; disulfide 3-13, 5-11; N-terminus assumed)",MIC,[1],NA (NA) (No antimicrobial activity at 1 mg/mL)
same,MBC,[1],NA (NA) (No antimicrobial activity at 1 mg/mL)
same,"RT, retention time of peptide in HPLC",[2],7.809 min
same,MIC,[8]; [11],NA (NA) (No antimicrobial activity at 1 mg/mL)
same,MBC,[8]; [12],NA (NA) (No antimicrobial activity at 1 mg/mL)
same,MIC,[9]; [11],NA (NA) (No antimicrobial activity at 1 mg/mL)
same,MBC,[9]; [12],NA (NA) (No antimicrobial activity at 1 mg/mL)
same,MIC,[3],NA (NA) (No antimicrobial activity at 1 mg/mL)
same,MBC,[3],NA (NA) (No antimicrobial activity at 1 mg/mL)
same,MIC,[4],NA (NA) (No antimicrobial activity at 1 mg/mL)
same,MBC,[4],NA (NA) (No antimicrobial activity at 1 mg/mL)
same,MIC,[5],NA (NA) (No antimicrobial activity at 1 mg/mL)
same,MBC,[5],NA (NA) (No antimicrobial activity at 1 mg/mL)
same,MIC,[6],NA (NA) (No antimicrobial activity at 1 mg/mL)
same,MBC,[6],NA (NA) (No antimicrobial activity at 1 mg/mL)
same,MIC,[10]; [11],NA (NA) (No antimicrobial activity at 1 mg/mL)
same,MBC,"[10]; minimum concentration which kills 99.9% bacteria, NA = no activity at 1 mg/mL",NA (NA) (No antimicrobial activity at 1 mg/mL)
same,MIC,[7],NA (NA) (No antimicrobial activity at 1 mg/mL)
same,MBC,[7],NA (NA) (No antimicrobial activity at 1 mg/mL)
